{"source": "patent US20140314676A1", "about": "“METHODS OF TREATMENT WITH DEFERIPRONE” (APOTEX TECHNOLOGIES INC., priority 2011, published 2014)", "key": {"[1]": {"test_system": "Langendorff heart preparation", "settings": "constant deferiprone infusion of 50 μM, ex vivo; cited from earlier work"}, "[2]": {"test_system": "porcine model of myocardial infarction", "experiment": "Porcine model of myocardial infarction (90 min LAD occlusion, reperfusion), pilot study monitored by MRI", "type": "in vivo", "settings": "for Ejection fraction (EF) / Vasodilatory dysfunction (remote myocardium T2) / Inflammation or edema (T2) / Ventricular volume (end-diastolic and end-systolic volumes): pigs N=2, oral 100 mg/kg daily; for Inflammation or edema (T2): infarct zone; for Ventricular volume (end-diastolic and end-systolic volumes): up to 4 weeks; for Hemorrhage (from T2* image): pigs N=2, oral pre-loading then 100 mg/kg daily, MRI day 2 to week 4", "protocol": "Post-infarct remodeling is a complex process with various pathophysiological changes occurring simultaneously (19) whose inter-dependence has not been completely understood in vivo. An initial study was performed to assess evolution of: 1) edema (T2); 2) hemorrhage (T2*); 3) cardiac function; 4) infarct/MVO size and 5) vasodilatory function in a porcine model of myocardial infarction. The left anterior descending artery (LAD) was occluded for 90 min followed by reperfusion; this model consistently produced anteroseptal transmural infarcts characterized by MVO. Pattern of progression of edema, hemorrhage and infarct/MVO was apparent on T2-, T2*-maps and contrast-enhanced (CE) images as shown in a representative animal (FIG. 1). Post-infarct LV remodeling was monitored by observing the cumulative time course of quantitative MRI parameters (FIG. 2). […] Vasodilator function (or perfusion reserve) was evaluated with T2-based Blood-oxygen-level-dependent (BOLD) imaging using a pharmacological vasodilator (FIG. 4). […] The failure of remote vasodilatory function to regain control levels in the chronic phase of AMI potentially served as a predictor of subsequent adverse LV remodeling. […] Importantly, the evolution of MRI parameters was well correlated with histological features, similar to patterns seen in humans (24); this justified using a large animal model, e.g., porcine, for translation to the clinic. Two papers based on this work were published in MRM (32, 76).\nExcess tissue iron accumulation can be lethal as free iron is toxic in nature. It has been speculated that iron chelation may be beneficial in acute coronary syndromes and that early treatment can limit ischemia-reperfusion injury and also reduce infarct size (83, 84). However, the role of iron chelation in hemorrhagic infarction has not yet been explored. In the present example, the cardioprotective properties of the iron chelating agent deferiprone (DFP) were explored in a porcine model of myocardial infarction. Deferiprone offered several advantages in that it is a very small molecule, both hydrophilic and lipophilic and highly membrane permeable; it can readily enter mitochondria and may access intracellular labile iron. In a pilot study, DFP was administered (orally) to pigs (N=2) a few hours before a 90 min LAD occlusion (pre-loading), and treatment was continued with a daily dose of 100 mg/kg (85). Animals were then monitored with a comprehensive MRI exam from day 2 to week 4. […] The result shown in FIG. 14 compared to FIG. 1 show the neutralizing capacity of DFP."}, "[3]": {"test_system": "porcine model of myocardial infarction", "experiment": "Hemorrhagic myocardial infarction in porcine model, remodeling monitored by CMR (Example 3)", "type": "in vivo", "protocol": "A quantitative study was done to investigate the effect of the deferiprone (DFP) on the hemorrhagic byproducts in tissue in a porcine model of myocardial infarction, and to monitor remodeling by cardiovascular magnetic resonance (CMR).\nThe study involved two groups of animals that were subjected to a 90 min balloon occlusion of the left anterior descending artery (LAD) followed by reperfusion—untreated (N=2) and DFP treated (N=2). DFP was administered (orally) a few hours (about 1-2 hours) before the procedure (pre-loading) and treatment was continued with a daily dose of 100 mg/kg. Imaging was performed on a 3T MRI scanner (MR 750, GE Healthcare) pre-AMI (healthy), day 2, week 1, week 2 and week 4 post-AMI. Edema was evaluated by T2 quantification using a T2-prepared spiral sequence and hemorrhage was identified by T2* using a multi-echo gradient-echo acquisition. Infarct assessment was performed by delayed hyperenhancement (DHE) using an IR-GRE sequence."}, "porcine hearts [4]": {"test_system": "porcine hearts", "experiment": "Artificially induced hemorrhage in porcine hearts by intracoronary injection of collagenase after 8 min ischemia", "type": "in vivo, Yorkshire pigs", "settings": "for Epicardial and intramyocardial hemorrhage: sacrifice at 24 hrs", "protocol": "(§1) 21 Yorkshire pigs (19-31 kg) were included in the study and 7-9 ml phosphate-buffered solution containing collagenase was injected using an over-the-wire angioplasty balloon catheter that was advanced to mid LAD after 2nd diagonal branch; balloon inflation was maintained for 8 min (ischemia). Six doses (250, 600, 800, 1200, 1600, and 3200 mcg) of collagenase were administered in equally divided groups; there was no mortality attributable to collagenase infusion. Animals were sacrificed at 24 hrs and hearts were explanted for histological analysis. […] After establishing this model, a pilot study was initiated to artificially induce hemorrhage in one animal subjected to a 45 min LAD occlusion, which is inherently non-hemorrhagic. Collagenase was injected immediately after balloon deflation i.e. during reperfusion at an intermediate dose of 1000 mcg. […] This was unlike the untreated 45 min infarcts studied. Currently, the causality between hemorrhage and MVO is unknown. The blood spilt in the interstitium might have compressed the microvasculature that was already vulnerable due to the initial ischemic insult; in other words, hemorrhage may have created the MVO."}, "porcine hearts [5]": {"test_system": "porcine hearts", "experiment": "Collagenase injection during reperfusion after 45 min LAD occlusion, MRI at day 2", "type": "in vivo, pig", "settings": "1000 mcg during reperfusion, day 2 post-AMI, one animal", "protocol": "as §1"}, "[6]": {"settings": "90 min LAD occlusion, listed as DFP, 100 mg/kg"}, "[7]": {"settings": "DFP treated N=2, 100 mg/kg daily"}}, "note": "Entries after “also recorded” stand apart in the source; their conditions may differ."}
{"compound": "Cc1c(O)c(=O)ccn1C", "note": "[deferiprone]", "values": [{"measurement": "Free radical activity", "setting": "[1]", "value": "reduction"}, {"measurement": "Ejection fraction (EF)", "setting": "[2]; 90 min LAD occlusion", "value": "reduced gradually"}, {"measurement": "Vasodilatory dysfunction (remote myocardium T2)", "setting": "[2]; 90 min LAD occlusion", "value": "impaired vasodilatory function only at day 2"}, {"measurement": "Inflammation or edema (T2)", "setting": "[2]; 90 min LAD occlusion, 100 mg/kg", "value": "substantially subsided at week 4; also recorded: substantially subsided beyond week 2"}, {"measurement": "Inflammation or edema (T2)", "setting": "[2]; [6]", "value": "substantially reduced by week 4"}, {"measurement": "Ventricular volume (end-diastolic and end-systolic volumes)", "setting": "[2]; 90 min LAD occlusion", "value": "Relatively unchanged"}, {"measurement": "Ventricular volume (end-diastolic and end-systolic volumes)", "setting": "[2]; [6]", "value": "relatively unchanged"}, {"measurement": "Ejection fraction (EF)", "setting": "[2]; [6]", "value": "gradually depressed by week 4"}, {"measurement": "Vasodilatory dysfunction (remote myocardium T2)", "setting": "[2]; [6]", "value": "observed only at day 2"}, {"measurement": "Hemorrhage (from T2* image)", "setting": "[2]; 90 min LAD occlusion", "value": "observed only on day 2 but resolved by week 1; also recorded: only observed on day 2, which later resolved"}, {"measurement": "Hemorrhage (from T2* image)", "setting": "[2]; 90 min LAD occlusion, listed as DFP", "value": "observed only on day 2 and by week 1 it had completely resolved"}, {"measurement": "Side effects", "setting": "[2]; pigs, oral 100 mg/kg daily, throughout the 4 weeks of observation", "value": "No side effects"}, {"measurement": "Microvascular obstruction (MVO)", "setting": "[2]; representative animal, 90 min LAD occlusion, seen on day 2", "value": "partially resolved by week 1"}, {"measurement": "Ejection fraction (EF)", "setting": "[3]; [7]", "value": "depressed by week 4"}, {"measurement": "End-diastolic and end-systolic volumes", "setting": "[3]; [7]", "value": "relatively unchanged"}, {"measurement": "Inflammation and edema (T2)", "setting": "[3]; [7]", "value": "substantially reduced by week 4"}, {"measurement": "Microvascular obstruction (MVO)", "setting": "[3]; DFP treated N=2, 100 mg/kg daily, seen on day 2", "value": "partially resolved by week 1"}, {"measurement": "Hemorrhage (as indicated by T2* image)", "setting": "[3]; DFP treated N=2, oral pre-loading then 100 mg/kg daily, 90 min LAD occlusion, listed as DFP", "value": "observed only on day 2 and by week 1 it had completely resolved"}]}
{"compound": "collagenase", "values": [{"measurement": "Mortality attributable to collagenase infusion", "setting": "porcine hearts [4]; 250-3200 mcg intracoronary, 21 pigs", "value": "no mortality"}, {"measurement": "Epicardial and intramyocardial hemorrhage", "setting": "porcine hearts [4]; 800-1600 mcg intracoronary", "value": "mild-moderate"}, {"measurement": "Epicardial and intramyocardial hemorrhage", "setting": "porcine hearts [4]; 3200 mcg intracoronary", "value": "severe"}, {"measurement": "Infarction (histology)", "setting": "porcine hearts [4]; intracoronary collagenase after 8 min ischemia", "value": "No infarction"}, {"measurement": "Dose resulting in hemorrhage on explanted hearts", "setting": "porcine hearts [4]; intracoronary, after 8 min ischemic episode", "value": "> 800", "unit": "µg"}, {"measurement": "Epicardial and intramyocardial hemorrhage", "setting": "porcine hearts [4]; up to 600 mcg intracoronary", "value": "none or mild focal"}, {"measurement": "Hemorrhage on T2*-weighted images", "setting": "porcine hearts [5]", "value": "Signal void"}, {"measurement": "MVO on DHE images", "setting": "porcine hearts [5]", "value": "corresponded with an MVO"}, {"measurement": "Hemorrhage on T2*-weighted images", "setting": "porcine hearts [5]; listed as Collagenase", "value": "signal void"}, {"measurement": "MVO on DHE images", "setting": "porcine hearts [5]; listed as Collagenase", "value": "presence of MVO"}]}
